Test results published in patent US6090787A, “Antithrombotic agents” (Eli Lilly and Company, priority 1999, dated 2000).
Square brackets hold non-standard residues; d marks the D form. Peptide text beside a SMILES is read from it. dPip = O=C(O)[C@H]1CCCCN1; Sar = CNCC(=O)O

How the values were obtained:
[1] = Index of bioavailability (% Relative Activity from plasma TT AUC, oral vs i.v.); assay type: in vivo; details: dose-adjusted AUC of plasma TT time course, p.o. vs i.v. bolus
Method: Plasma thrombin time (TT) and activated partial thromboplastin time (APTT) are measured with a fibrometer. Blood is sampled from a jugular catheter and collected in syringe containing sodium citrate (3.8%, 1 part to 9 parts blood). […] Parke Davis) at 37° C. For APTT, plasma (0.1 mL) and APTT solution (0.1 mL, Organon Teknika) are incubated for 5 minutes (37° C.) and CaCl2 (0.01 mL, 0.025 M) is added to start coagulation. Assays are done in duplicate and averaged. A measure of bioactivity, plasma thrombin time (TT), served as a substitute for the assay of parent compound on the assumption that increments in TT resulted from thrombin inhibition by parent only. The time course of the effect of the thrombin inhibitor upon TT is determined after i.v. bolus administration to anesthetized rats and after oral treatment of fasted conscious rats. Due to limitations of blood volume and the number of points required to determine the time course from time of treatment to the time when the response returned to pretreatment values, two populations of rats are used. Each sample population represented alternating sequential time points. The average TT over the time course is used to calculate area under the curve (AUC). The index of bioavailability is calculated by the formula shown below and is expressed as percent relative activity. The area under the curve (AUC) of the plasma TT time course is determined and adjusted for the dose. This index of bioavailability is termed "% Relative Activity" and is calculated as [formula] Compound solutions are prepared fresh daily in normal saline and are injected as a bolus or are infused starting 15 minutes before and continuing throughout the experimental perturbation which is 15 minutes in the arteriovenous shunt model and 60 minutes in the FeCl3 model of arterial injury and in the spontaneous thombosis model. Bolus injection volume is 1 mL/kg for i.v., and 5 mL/kg for p.o. and infusion volume is 3 mL/hr.

factor Xa = molecular target: T1, factor Xa (Homo sapiens, UniProt P00742); assay: Serine protease selectivity, Kass, factor Xa chromogenic assay; assay type: biochemical; details: apparent association constant
T1 construct: Human factors X, Xa, IXa, XIa, and XIIa are purchased from Enzyme Research Laboratories; purchased Enzyme Research Laboratories, South Bend, Ind
T1 sequence (P00742 235-488 limits assumed): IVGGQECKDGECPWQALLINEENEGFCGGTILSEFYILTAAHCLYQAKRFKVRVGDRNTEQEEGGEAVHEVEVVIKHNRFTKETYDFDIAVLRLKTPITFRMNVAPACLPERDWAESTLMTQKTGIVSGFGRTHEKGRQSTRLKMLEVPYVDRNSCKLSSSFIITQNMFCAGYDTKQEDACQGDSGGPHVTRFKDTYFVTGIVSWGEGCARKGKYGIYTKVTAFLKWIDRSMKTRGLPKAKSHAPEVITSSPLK
T1 sequence (P00742 41-179 partner limits assumed): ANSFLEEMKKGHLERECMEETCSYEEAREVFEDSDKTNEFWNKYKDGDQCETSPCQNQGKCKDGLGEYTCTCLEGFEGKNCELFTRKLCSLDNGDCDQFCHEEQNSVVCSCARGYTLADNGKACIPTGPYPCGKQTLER
Method: By substantially following the procedures described above for human thrombin, and using other human blood coagulation system serine proteases and proteases of the fibrinolytic system with the appropriate chromogenic substrates, identified below, selectivity of the compounds of the present invention with respect to the coagulation factor serine proteases and with respect to the fibrinolytic system serine proteases are evaluated as well as their substantial lack of interference with serine proteases of the fibrinolytic system. Thrombin inhibitors preferably should spare fibrinolysis induced by urokinase, tissue plasminogen activator (t-PA) and streptokinase. This would be important to the therapeutic use of such agents as an adjunct to streptokinase, t-PA or urokinase thrombolytic therapy and to the use of such agents as an endogenous fibrinolysis-sparing (with respect to t-PA and urokinase) antithrombotic agent. In addition to the lack of interference with the amidase activity of the fibrinolytic proteases, such fibrinolytic system sparing can be studied by the use of human plasma clots and their lysis by the respective fibrinolytic plasminogen activators.
Human factors X, Xa, IXa, XIa, and XIIa are purchased from Enzyme Research Laboratories, South Bend, Ind.; human urokinase from Leo Pharmaceuticals, Denmark; and recombinant activated Protein C (aPC) is prepared at Eli Lilly and Co. substantially according to U.S. Pat. No. 4,981,952 incorporated by reference herein in its entirety. Chromogenic substrates: N--Benzoyl--Ile--Glu--Gly--Arg--p--nitroanilide (for factor Xa); N--Cbz--D--Arg--Gly--Arg--p--nitroanilide (for factor IXa assay as the factor Xa substrate); Pyroglutamyl--Pro--Arg--p--nitroanilide (for Factor XIa and for aPC); H--D--Pro--Phe--Arg--p--nitroanilide (for factor XIIa); and Pyroglutamyl--Gly--Arg--p--nitroanilide (for urokinase); are purchased from KabiVitrum, Stockholm, Sweden, or from Midwest Biotech, Fishers, Indiana. Bovine trypsin is purchased from Worthington Biochemicals, Freehold, N.J., and human plasma kallikrein from Kabi Vitrum, Stockholm, Sweden. Chromogenic substrate H--D--Pro--Phe--Arg--p--nitroanilide for plasma kallikrein is purchased from Kabi Vitrum, Stockholm, Sweden. N--Benzoyl--Phe--Val--Arg--p--nitroanilide, the substrate for human thrombin and for trypsin, is synthesized according to procedures described above for the compounds of the present invention, using known methods of peptide coupling from commercially available reactants or purchased from Midwest Biotech, Fishers, Ind.

% oral/i.v. activity (Rat) [1] [%] | Enzyme Kass Xa (factor Xa) [L/mol × 10^6] | Structure (SMILES)
17 | 4.4 | Cl.Cl.N=C(N)NCCC[C@@H](C=O)NC(=O)CN(CCc1ccccc1)C(=O)[C@H]1CCCCN1 [Example 8, D-homoprolyl-N-(2-phenylethyl)glycyl-L-argininal dihydrochloride]
37 | 0.13 | CN(CC(=O)N[C@H](C=O)CCCNC(=N)N)C(=O)[C@H]1CCCCN1.Cl.Cl [Example 1, D-homoprolyl-N-methylglycyl-L-argininal dihydrochloride] (H-[dPip]-[Sar]-Arg-aldehyde)

Structure (SMILES) | % oral/i.v. activity (Rat) [1] [%] | Enzyme Kass Xa (factor Xa) [L/mol × 10^6]
CC(C)CCN(CC(=O)N[C@H](C=O)CCCN=C(N)N)C(=O)[C@H]1CCCCN1.Cl.Cl [Example 6, D--hPro--N(isoamyl)Gly--ArgH.2HCl] | 22 | 0.071
